Measured values from ChEMBL document CHEMBL1201862, “PubChem BioAssay data set” (2004).
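Grown in 96-well plates, cells were treated for 48 hours with each compound at five concentrations. Insufficient inhibition: endpoint recorded as highest concentration tested. GI50 = concentration required for 50% inhibition of growth.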 The source made the active and inactive calls. Rule as the data show it: active = GI50 up to about 1.1 µM and inactive = higher.

Key:
Assay in all cases: NCI-60 cell line screen, 48 h
SF-295 = test system: SF-295
UACC-62 = test system: UACC-62
HT-29 = test system: HT-29
U-251 = test system: U-251
EKVX = test system: EKVX
UO-31 = test system: UO-31
COLO 205 = test system: COLO 205
MDA-N = test system: MDA-N
SF-268 = test system: SF-268
SF-539 = test system: SF-539
T47D = test system: T47D
M14 = test system: M14
HCT-116 = test system: HCT-116
UACC-257 = test system: UACC-257
TK-10 = test system: TK-10
OVCAR-3 = test system: OVCAR-3
NCI-H226 = test system: NCI-H226
A549 = test system: A549

Measured: GI50

CC12CC(=O)C3C(CCC4=CC(=O)CCC43C)C1CC=C2CC(=O)O (stereo not given)
inactive: SF-295 > 100 µM | UACC-62 > 100 µM | HT-29 > 100 µM | U-251 > 100 µM | EKVX > 100 µM | UO-31 > 100 µM | COLO 205 > 100 µM | MDA-N > 100 µM | SF-268 > 100 µM | SF-539 > 100 µM | T47D > 100 µM | M14 > 100 µM | HCT-116 > 100 µM | UACC-257 > 100 µM | TK-10 > 100 µM | OVCAR-3 98.2 µM | NCI-H226 > 100 µM | A549 > 100 µM

O=C(CC(O)(C(F)(F)F)C(F)(F)F)C(CCCl)C(O)(C(F)(F)F)C(F)(F)F (stereo not given)
inactive: SF-295 33.5 µM | UACC-62 53.2 µM | HT-29 23.8 µM | U-251 35.6 µM | EKVX 34.7 µM | UO-31 28.2 µM | COLO 205 13.8 µM | MDA-N > 100 µM | SF-268 30.7 µM | SF-539 54.8 µM | T47D 26 µM | M14 40.6 µM | HCT-116 26.7 µM | UACC-257 30.8 µM | TK-10 55.7 µM | OVCAR-3 11.5 µM | NCI-H226 23.5 µM | A549 35.6 µM

N#Cc1c2c(c(Nc3ccc(F)cc3)n3c1nc1ccccc13)CCC2
inactive: SF-295 5.05 µM | UACC-62 10.9 µM | HT-29 1.87 µM | U-251 2.84 µM | EKVX 11.3 µM | UO-31 2.45 µM | COLO 205 6.31 µM | MDA-N 3.47 µM | SF-268 3.55 µM | SF-539 3.46 µM | T47D 7.8 µM | M14 5.89 µM | HCT-116 1.76 µM | UACC-257 7.96 µM | TK-10 3.7 µM | OVCAR-3 7.89 µM | NCI-H226 6.81 µM | A549 5.93 µM

COc1ccc(/C=C/C(=O)Oc2cc(O)cc(O)c2)cc1
inactive: SF-295 23.2 µM | UACC-62 > 100 µM | HT-29 29.4 µM | U-251 24.6 µM | EKVX 56.2 µM | UO-31 37.6 µM | COLO 205 57.9 µM | MDA-N 58.5 µM | SF-268 26.2 µM | SF-539 95.1 µM | T47D 43.5 µM | M14 41.4 µM | HCT-116 14.3 µM | UACC-257 > 100 µM | TK-10 > 100 µM | OVCAR-3 18 µM | NCI-H226 > 100 µM | A549 34.8 µM

Cc1ccc(/S(Cc2ccccc2)=N\S(=O)(=O)c2ccc(C)cc2)cc1 (stereo not given)
inactive: SF-295 > 100 µM | HT-29 > 100 µM | U-251 > 100 µM | EKVX > 100 µM | UO-31 > 100 µM | COLO 205 > 100 µM | MDA-N > 100 µM | SF-268 > 100 µM | SF-539 > 100 µM | T47D > 100 µM | M14 > 100 µM | HCT-116 > 100 µM | UACC-257 > 100 µM | TK-10 > 100 µM | OVCAR-3 > 100 µM | NCI-H226 > 100 µM | A549 > 100 µM

O=C1N/C(=N/N=C/c2ccccc2)N/C1=C\c1c[nH]c2ccccc12
inactive: SF-295 > 100 µM | UACC-62 > 100 µM | HT-29 > 100 µM | U-251 21.9 µM | EKVX 84.5 µM | UO-31 71.6 µM | COLO 205 60.7 µM | MDA-N > 100 µM | SF-268 56.6 µM | SF-539 > 100 µM | T47D > 100 µM | M14 71.6 µM | HCT-116 > 100 µM | UACC-257 > 100 µM | TK-10 > 100 µM | OVCAR-3 49.7 µM | NCI-H226 72.6 µM | A549 28 µM

Cc1ccc2c(c1)C=CC(C#N)N2C(=O)Oc1ccccc1 (stereo not given)
inactive: UACC-62 31.4 µM | HT-29 18.7 µM | U-251 23.7 µM | EKVX 18.1 µM | UO-31 27.7 µM | COLO 205 25.9 µM | MDA-N 29 µM | SF-268 29.9 µM | SF-539 60.7 µM | T47D 20.8 µM | M14 40.8 µM | HCT-116 37.9 µM | UACC-257 39.8 µM | TK-10 31 µM | NCI-H226 31 µM | A549 29.5 µM

[O-][S+](Nc1ccccc1)c1ccc(Cl)cc1 (stereo not given)
inactive: SF-295 > 100 µM | UACC-62 14.9 µM | HT-29 > 100 µM | U-251 23.6 µM | EKVX > 100 µM | UO-31 44.8 µM | COLO 205 > 100 µM | MDA-N > 100 µM | SF-268 16.2 µM | SF-539 18.9 µM | T47D 50.1 µM | M14 > 100 µM | HCT-116 61.5 µM | UACC-257 > 100 µM | TK-10 > 100 µM | OVCAR-3 > 100 µM | NCI-H226 > 100 µM | A549 48.4 µM

CCOC(=O)/C(=C\c1cccc(C)c1)C(C)=O
inactive: SF-295 23.4 µM | UACC-62 16.5 µM | HT-29 17.9 µM | U-251 13.1 µM | EKVX 48 µM | UO-31 13.8 µM | COLO 205 19.2 µM | MDA-N 12.7 µM | SF-268 15.2 µM | SF-539 16.7 µM | T47D 11.1 µM | M14 17.4 µM | HCT-116 16.7 µM | UACC-257 14.3 µM | TK-10 16.3 µM | OVCAR-3 14.5 µM | NCI-H226 24.9 µM | A549 30 µM

CNCCCNC(=S)Cn1cc(C)c(=O)[nH]c1=O
inactive: SF-295 > 27 µM | UACC-62 > 47.4 µM | HT-29 > 35.9 µM | U-251 > 47.5 µM | EKVX > 60.8 µM | UO-31 > 48 µM | COLO 205 > 48.8 µM | MDA-N > 100 µM | SF-268 > 39.1 µM | SF-539 > 20.1 µM | T47D > 100 µM | M14 > 53 µM | HCT-116 > 33.8 µM | UACC-257 > 37.9 µM | TK-10 > 64.7 µM | OVCAR-3 > 48.9 µM | NCI-H226 > 59 µM | A549 > 29.9 µM

NNC(=O)c1cc([N+](=O)[O-])ccc1NC(=O)C12CC3CC(CC(C3)C1)C2
inactive: SF-295 14 µM | UACC-62 10 µM | HT-29 25.8 µM | U-251 6.92 µM | EKVX 7.05 µM | UO-31 7.98 µM | COLO 205 6.04 µM | MDA-N 21 µM | SF-268 3.82 µM | SF-539 13.5 µM | T47D 10 µM | M14 13 µM | HCT-116 7.74 µM | UACC-257 15.2 µM | TK-10 12.2 µM | OVCAR-3 3.15 µM | NCI-H226 4.62 µM | A549 17.8 µM

CC1(C)[C@@H]2CC[C@@]1(C)CN(CCC[N+](C)(C)C)C2
inactive: SF-295 > 100 µM | UACC-62 > 100 µM | HT-29 > 100 µM | U-251 > 100 µM | EKVX > 100 µM | UO-31 > 100 µM | COLO 205 > 100 µM | MDA-N > 100 µM | SF-268 > 100 µM | SF-539 > 100 µM | T47D > 100 µM | M14 > 100 µM | HCT-116 > 100 µM | UACC-257 > 100 µM | TK-10 > 100 µM | OVCAR-3 > 100 µM | NCI-H226 > 100 µM | A549 > 100 µM

N#Cc1c(=O)c2cc([N+](=O)[O-])ccc2n2c1[nH]c1ccccc12
inactive: SF-295 4.2 µM | UACC-62 4.59 µM | HT-29 8.09 µM | U-251 7.71 µM | EKVX 23.1 µM | UO-31 4.3 µM | COLO 205 4.99 µM | MDA-N 15 µM | SF-268 8.67 µM | SF-539 17.3 µM | T47D 4.44 µM | M14 7.96 µM | HCT-116 3.37 µM | UACC-257 7.46 µM | TK-10 5.92 µM | OVCAR-3 3.43 µM | NCI-H226 4.58 µM | A549 7.57 µM

S=C(NN=C1NCCCCN1)Nc1ccc(Cl)cc1
inactive: SF-295 13.7 µM | UACC-62 4.52 µM | HT-29 16.2 µM | U-251 7.71 µM | EKVX 31.9 µM | UO-31 9.44 µM | COLO 205 13.1 µM | MDA-N 11.4 µM | SF-268 14.4 µM | SF-539 28.2 µM | T47D 39.8 µM | M14 8.09 µM | HCT-116 7.52 µM | UACC-257 14.8 µM | TK-10 27.3 µM | OVCAR-3 35.8 µM | NCI-H226 > 100 µM | A549 11.8 µM

O=C(C/C(=N/O)C(F)(F)F)c1cccs1
inactive: SF-295 > 100 µM | UACC-62 > 100 µM | HT-29 > 100 µM | U-251 > 100 µM | EKVX > 100 µM | UO-31 > 100 µM | COLO 205 > 100 µM | MDA-N > 100 µM | SF-268 > 100 µM | SF-539 > 100 µM | T47D > 100 µM | M14 > 100 µM | HCT-116 > 100 µM | UACC-257 > 100 µM | TK-10 > 100 µM | OVCAR-3 67.8 µM | NCI-H226 > 100 µM | A549 > 100 µM

COc1ccc(/N=C2/C(=N/c3ccc(OC)cc3)N(c3ccccc3)C(=S)N2N=C=C2Sc3ccccc3N2C)cc1
inactive: SF-295 > 100 µM | UACC-62 > 100 µM | HT-29 > 100 µM | U-251 88.7 µM | EKVX > 100 µM | UO-31 > 100 µM | COLO 205 > 100 µM | MDA-N > 100 µM | SF-268 > 100 µM | SF-539 > 100 µM | T47D > 100 µM | M14 57.4 µM | HCT-116 88.1 µM | UACC-257 > 100 µM | TK-10 32.1 µM | OVCAR-3 > 100 µM | NCI-H226 > 100 µM | A549 > 100 µM
